Results published in US20220298541A1, “ASSAY FOR DETERMINING TARGET ENGAGEMENT IN REAL-TIME IN LIVING SYSTEMS” (Indian Institute of Science Education and Research, priority 2021, published 2022).
Residues, ends and D or L forms follow the SMILES beside them. *: point of attachment. Cbz = O=C(OCc1ccccc1)*; CH2F = FC*

Key:
caspase-3 [1] = target: T1, caspase-3 (Homo sapiens, UniProt P42574); assay: Screening protease inhibitors by BRET-approach of AbRGT in 96 well plates, caspase-3 RLuc transfected MCF-7 cells; assay type: cell-based
T1 construct: expressed in transfected cells; host or cells: MCF-7 (caspase-3 null); 2 in A4
T1 sequence (P42574 29-175 limits assumed): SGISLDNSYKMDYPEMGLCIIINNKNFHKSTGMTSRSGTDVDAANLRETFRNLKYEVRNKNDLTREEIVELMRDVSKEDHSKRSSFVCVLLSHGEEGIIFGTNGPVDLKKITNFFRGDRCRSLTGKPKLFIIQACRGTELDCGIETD
T1 sequence (P42574 176-277 limits assumed): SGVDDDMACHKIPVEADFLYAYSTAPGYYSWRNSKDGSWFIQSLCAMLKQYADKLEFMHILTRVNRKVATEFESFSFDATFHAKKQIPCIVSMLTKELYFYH
From the text: To show BRET-approach of AbRGT can be used for the high-throughput screening of inhibitors four different inhibitors; Z-VAD-FMK, C-inhibitor-II, E-64, and Q-VD-OPh were selected. Z-VAD-FMK, E-64, and Q-VD-OPh are irreversible inhibitors, while cpm-VAD-CHO is a reversible inhibitor. Z-VAD-FMK and Q-VD-OPh are widely known pan-caspase inhibitors that inhibit caspases with a different mechanism.
For inhibitor screening in a high-throughput format, caspase-3 RLuc transfected MCF-7 cells in 96 well plates were treated with STS (1 μM) for 4 h. Subsequently, after STS treatment, cells were incubated with Z-VAD-FMK or E64 or Q-VD-OPh inhibitors at two different concentrations (25 or 50 μM) for 1 h. Cells were then labeled with the Rh-VAD-FMK probe for 1 h, followed by the addition of coelenterazine h. Immediately after coelenterazine h addition, average radiance was recorded in the donor emission and the acceptor emission channel. The BRET measurements were done by calculating the mBRET values of each sample.

caspase-3 [2] = assay: Quantification of caspase-3 activation using BRET-approach of AbRGT in MCF-7 cells transiently transfected with pCMV-caspase-3-GGSRLuc 8.6; assay type: cell-based, human; details: STS 1 μM for 4 h; transiently transfected MCF-7 cells; Rh-VAD-FMK probe; untreated control 11±9.2
Description: To determine the specific caspase-3 activation, pCMV-caspase-3-GGSRLuc 8.6 plasmid was overexpressed in the MCF-7 cell line since it is caspase-3 null. The cells were subjected to treatment with Staurosporine (STS) (1 μM) for 4 h for the induction of apoptosis. […] Subsequently, cells were incubated with ABFP, Rh-VAD-FMK probe (BRET acceptor) for the labeling of PoI, and other proteases of the same family. The RLuc 8.6 substrate coelenterazine h was added to the cells, and the average radiance was recorded in the donor emission channel, RLuc 8.6 (520-540 nm), and the acceptor emission channel, rhodamine (580-600 nm) channel. The BRET measurements were done by calculating the mBRET values for the STS treated versus untreated samples using the following equation.^7 Here, acceptor and donor is represented by (A) and (D), respectively.

caspase-3 [3] = assay: Quantification of caspase-3 activation in Caspase-3 RLuc expressing stable MCF-7 clone no. 2 by BRET-approach of AbRGT; assay type: cell-based, human
Description: Luciferase activity in the MCF7 Caspase3-GGS-RLuc8.6 clone no. 2, 3, 4 was measured by the addition of luciferase substrate, coelentrazine. Immediately after substrate addition, average radiance value was recorded and plotted as a bar graph (FIG. 4.8). […] The caspase-3 activity in the clone 2 cells further quantified by the BRET-approach of AbRGT. MCF-7 Caspase3-GGS-RLuc8.6 clone no. 2 cells were treated with increasing concentration (0, 50, 100, and 200 nM) of STS for 4 h. Subsequently, cells were incubated with Rh-VAD-FMK probe for 1 h followed by the addition of coelentrazine h. Immediately after substrate addition, average radiance was recorded at donor and acceptor filters and the mBRET values were calculated and plotted as a bar graph (FIG. 9).

caspase-3 [4] = target: T1, caspase-3; assay: Effect of protease inhibitor on STS dependent caspase activation (BRET based AbRGT, Rh-VAD-FMK probe); assay type: cell-based; details: STS 0-4 μM followed by 1 h treatment with 50 μM Z-VAD-FMK; transiently transfected cells
Description: To check the effect of protease inhibitor Z-VAD-FMK on caspase activation, the pCMV-caspase-3-GGS-RLuc8.6 transiently transfected cells were treated with increasing concentration of STS(0-4 μM) followed by 1 h treatment of 50 μM of Z-VAD-FMK. The caspase3 activation was checked by BRET based AbRGT approach by using Rh-VAD-FMK probe. […] Thus we can use the BRET-approach of AbRGT to screen caspase inhibitors and activators. (FIG. 6).

CC(C)[C@H](NC(=O)c1ccc2ccccc2n1)C(=O)N[C@@H](CC(=O)O)C(=O)COc1c(F)cccc1F [Q-VD-OPh]
mBRET values as compared to Z-VAD-FMK inhibitor (caspase-3 [1]; STS 1 μM 4 h, then inhibitor 25 or 50 μM for 1 h): higher

CN[C@@H]1C[C@H]2O[C@@](C)([C@@H]1OC)n1c3ccccc3c3c4c(c5c6ccccc6n2c5c31)C(=O)NC4 [STS, Staurosporine]
mBRET value (indirect readout of specific caspase-3 activation) (caspase-3 [2]): 60±0.4
change of mBRET values with increasing STS concentration (caspase-3 [3]; 0, 50, 100 and 200 nM STS for 4 h, clone no. 2): increase
increase in mBRET as compared to the untreated cells (caspase-3 [3]; 200 nM STS for 4 h, MCF-7 Caspase3-GGS-RLuc8.6 clone no. 2): ~4 fold
mBRET value of the sample in the absence of inhibitor (caspase-3 [1]; STS 1 μM for 4 h, no inhibitor, 96 well plate): 60±0.4

COC(=O)C[C@H](NC(=O)[C@H](C)NC(=O)[C@@H](NC(=O)OCc1ccccc1)C(C)C)C(=O)CF [Z-VAD-FMK] (Cbz-Val-Ala-Asp(OMe)-CH2F)
effect on caspase activation in presence of STS compared to only STS treated cells (caspase-3 [4]): inhibits the caspase activation
